Here are results for 24 compounds from patent US20250101041A1, “POSITIVE ALLOSTERIC MODULATORS OF THE MUSCARINIC ACETYLCHOLINE RECEPTOR M4” (Vanderbilt University, priority 2022, published 2025).

This experiment concerns the target T1, human mAChR M4 (Homo sapiens, UniProt P08173).
T1 construct: expressed in transfected cells; host or cells: CHO-K1 (American Type Culture Collection), stably expressing hM4 and Gqi5
T1 sequence (P08173 1-479): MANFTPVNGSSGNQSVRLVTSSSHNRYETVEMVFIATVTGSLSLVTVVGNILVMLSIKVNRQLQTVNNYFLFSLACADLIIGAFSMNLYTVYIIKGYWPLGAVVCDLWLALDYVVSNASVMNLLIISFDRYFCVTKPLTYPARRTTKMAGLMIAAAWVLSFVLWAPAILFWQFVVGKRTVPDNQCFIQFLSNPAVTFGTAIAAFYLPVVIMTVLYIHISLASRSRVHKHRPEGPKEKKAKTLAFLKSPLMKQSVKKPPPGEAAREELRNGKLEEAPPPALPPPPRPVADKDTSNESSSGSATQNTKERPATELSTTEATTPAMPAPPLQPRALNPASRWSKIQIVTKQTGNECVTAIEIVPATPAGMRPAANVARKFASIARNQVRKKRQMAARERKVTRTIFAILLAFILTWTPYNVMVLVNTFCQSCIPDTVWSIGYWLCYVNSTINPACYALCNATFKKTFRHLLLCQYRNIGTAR
Put plainly: mAChR M4 cell-based functional assay: calcium mobilization (Fluo-4, FDSS), potentiation of EC20 acetylcholine response in hM4-Gqi5 CHO-K1 cells. The conditions noted are these: human M4; for Emax at 30 µM: CHO-K1, % ACh maximum at 30 μM; for EC50: potentiation of EC20 acetylcholine response, calcium mobilization. The method in brief:
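Readout is the fluorescence-ratio rise at 1 Hz on FDSS, with PAM activity taken as concentration-dependent enhancement of the EC20 acetylcholine response, fitted four-parameter for EC50/Emax. hM4-Gqi5 CHO-K1 cells carried Fluo-4 AM dye; test compounds (11 points, 1:3) preceded EC20 acetylcholine additions at 144 s and 230 s.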
For orientation: A change in cytosolic calcium serves as a functional read-out for many receptors and channels.

In general, Emax refers to the greatest response seen or fitted, relative to the assay's reference. A word on the EC50: it is the concentration at which the effect is half-maximal. For `Cc1cc2nccc(=O)n2nc1N1CCc2ncc(-c3cnn(C)c3)cc2C1` [Compound 1-6, 8-methyl-7-(3-(1-methyl-1H-pyrazol-4-yl)-7,8-dihydro-1,6-naphthyridin-6(5H)-yl)-4H-pyrimido[1,2-b]pyridazin-4-one], the maximum response (Emax) at 30 µM turned out to be 83% and the concentration giving a half-maximal response (EC50) came to 0.736 µM.

As to `Cc1cc2nccc(=O)n2nc1N1CCc2ncc(NC(=O)C3COC3)cc2C1` [Compound 2-109, N-(6-(8-methyl-4-oxo-4H-pyrimido[1,2-b]pyridazin-7-yl)-5,6,7,8-tetrahydro-1,6-naphthyridin-3-yl)oxetane-3-carboxamide], the maximal response (Emax) at 30 µM came to 30%.

As to `COc1cncc(-c2cnc3c(c2)CN(c2nn4c(=O)cc(C)nc4cc2C)CC3)c1` [Compound 1-70, 7-(3-(5-methoxypyridin-3-yl)-7,8-dihydro-1,6-naphthyridin-6(5H)-yl)-2,8-dimethyl-4H-pyrimido[1,2-b]pyridazin-4-one], the Emax at 30 µM came to 92% and the EC50 was found to be 0.274 µM.

`COCc1cc(=O)n2nc(N3CCc4ncc(-c5cccc(F)c5)cc4C3)c(C)cc2n1` [Compound 1-358, 7-(3-(3-fluorophenyl)-7,8-dihydro-1,6-naphthyridin-6(5H)-yl)-2-(methoxymethyl)-8-methyl-4H-pyrimido[1,2-b] pyridazin-4-one]: the maximal response (Emax) at 30 µM was determined as 83% and the half-maximal effective concentration (EC50) turned out to be 0.337 µM.

In the case of `Cc1cc2nccc(=O)n2nc1N1CCc2ncc(N3CCCc4cc(F)ccc43)cc2C1` [Compound 2-103, 7-(3-(6-fluoro-3,4-dihydroquinolin-1(2H)-yl)-7,8-dihydro-1,6-naphthyridin-6(5H)-yl)-8-methyl-4H-pyrimido[1,2-b]pyridazin-4-one], the Emax at 30 µM was determined as 89% and the EC50 was 0.033 µM.

For the compound `Cc1cc(C(F)(F)F)ncc1-c1cnc2c(c1)CN(c1nn3c(=O)ccnc3cc1C)CC2` [Compound 1-400, 8-methyl-7-(3-(4-methyl-6-(trifluoromethyl)pyridin-3-yl)-7,8-dihydro-1,6-naphthyridin-6(5H)-yl)-4H-pyrimido[1,2-b] pyridazin-4-one], the maximal effect (Emax) at 30 µM stood at 95% and the EC50 is 0.433 µM.

Consider `Cc1ccncc1-c1cnc2c(c1)CN(c1nn3c(=O)cc(C(F)F)nc3c(C)c1C)CC2` [Compound 1-161, 2-(difluoromethyl)-8,9-dimethyl-7-(3-(4-methylpyridin-3-yl)-7,8-dihydro-1,6-naphthyridin-6(5H)-yl)-4H-pyrimido[1,2-b]pyridazin-4-one], for which the Emax at 30 µM was 76% and the half-maximal effective concentration (EC50) turned out to be 0.092 µM.

As for `Cc1ccc(-c2cnc3c(c2)CN(c2nn4c(=O)c(C)cnc4c(C)c2C)CC3)cn1` [Compound 1-100, 3,8,9-trimethyl-7-(3-(6-methylpyridin-3-yl)-7,8-dihydro-1,6-naphthyridin-6(5H)-yl)-4H-pyrimido[1,2-b]pyridazin-4-one], the maximal response (Emax) at 30 µM is 92% and the 50% effective concentration (EC50) was 0.134 µM.

`Cc1cc2nc(C)c(Cl)c(=O)n2nc1N1CCc2ncc(N3CCCn4nccc43)cc2C1` [Compound 2-16, 3-chloro-7-(3-(6,7-dihydropyrazolo[1,5-a]pyrimidin-4(5H)-yl)-7,8-dihydro-1,6-naphthyridin-6(5H)-yl)-2,8-dimethyl-4H-pyrimido[1,2-b]pyridazin-4-one]: the Emax at 30 µM was determined as 88% and the concentration giving a half-maximal response (EC50) came to 0.012 µM.

Turning to `Cc1cc2nccc(=O)n2nc1N1CCc2ncc(-c3cnc(Cl)cc3C(F)F)cc2C1` [Compound 1-329, 7-(3-(6-chloro-4-(difluoromethyl)pyridin-3-yl)-7,8-dihydro-1,6-naphthyridin-6(5H)-yl)-8-methyl-4H-pyrimido[1,2-b]pyridazin-4-one], the Emax at 30 µM was 78% and the EC50 worked out at 1.06 µM.

With `Cc1c(N2CCc3ncc(C(F)(F)F)cc3C2)nn2c(=O)cc(C(F)(F)F)nc2c1C` [Compound 1-39, 8,9-dimethyl-2-(trifluoromethyl)-7-(3-(trifluoromethyl)-7,8-dihydro-1,6-naphthyridin-6(5H)-yl)-4H-pyrimido[1,2-b]pyridazin-4-one], the Emax at 30 µM was found to be 86% and the EC50 worked out at 0.206 µM.

As to `Cc1cc2nccc(=O)n2nc1N1CCc2ncc(-c3sc(C(=O)NC4CC4)cc3C)cc2C1` [Compound 1-428, N-cyclopropyl-4-methyl-5-(6-(8-methyl-4-oxo-4H-pyrimido[1,2-b]pyridazin-7-yl)-5,6,7,8-tetrahydro-1,6-naphthyridin-3-yl)thiophene-2-carboxamide], the Emax at 30 µM is 80% and the EC50 was 0.351 µM.

Take `Cc1cc2nccc(=O)n2nc1N1CCc2ncc(NC(=O)C3CC3)cc2C1` [Compound 2-108, N-(6-(8-methyl-4-oxo-4H-pyrimido[1,2-b]pyridazin-7-yl)-5,6,7,8-tetrahydro-1,6-naphthyridin-3-yl)cyclopropanecarboxamide]: the Emax at 30 µM was 56% and the EC50 worked out at 1.65 µM.

Turning to `Cc1cc2nccc(=O)n2nc1N1CCc2ncc(-c3ccc(C(F)(F)F)nc3)cc2C1` [Compound 1-66, 8-methyl-7-(3-(6-(trifluoromethyl)pyridin-3-yl)-7,8-dihydro-1,6-naphthyridin-6(5H)-yl)-4H-pyrimido[1,2-b]pyridazin-4-one], the Emax at 30 µM turned out to be 77% and the concentration giving a half-maximal response (EC50) worked out at 0.832 µM.

With `Cc1cc2nccc(=O)n2nc1N1CCc2ncc(-c3cccnn3)cc2C1` [Compound 1-352, 8-methyl-7-(3-(pyridazin-3-yl)-7,8-dihydro-1,6-naphthyridin-6(5H)-yl)-4H-pyrimido[1,2-b]pyridazin-4-one], the Emax at 30 µM stood at 59% and the half-maximal effective concentration (EC50) was 3.31 µM.

As for `Cc1cc(=O)n2nc(N3CCc4ncc(-c5cnc(Cl)cc5C)cc4C3)c(C)cc2n1` [Compound 1-207, 7-(3-(6-chloro-4-methylpyridin-3-yl)-7,8-dihydro-1,6-naphthyridin-6(5H)-yl)-2,8-dimethyl-4H-pyrimido[1,2-b]pyridazin-4-one], the maximum response (Emax) at 30 µM is 91% and the EC50 stood at 0.315 µM.

On to `Cc1cc2nc(C(=O)N3CC(C)(F)C3)cc(=O)n2nc1N1CCc2ncc(C(F)(F)F)cc2C1` [Compound 1-45, 2-(3-fluoro-3-methylazetidine-1-carbonyl)-8-methyl-7-(3-(trifluoromethyl)-7,8-dihydro-1,6-naphthyridin-6(5H)-yl)-4H-pyrimido[1,2-b]pyridazin-4-one], for which the maximal response (Emax) at 30 µM turned out to be 100% and the EC50 came to 0.167 µM.

In the case of `COCc1cc(=O)n2nc(N3CCc4ncc(-c5cc(F)ccc5C)cc4C3)c(C)c(C)c2n1` [Compound 1-227, 7-(3-(5-fluoro-2-methylphenyl)-7,8-dihydro-1,6-naphthyridin-6(5H)-yl)-2-(methoxymethyl)-8,9-dimethyl-4H-pyrimido[1,2-b]pyridazin-4-one], the Emax at 30 µM worked out at 83% and the concentration for a half-maximal effect (EC50) was determined as 0.135 µM.

Take `Cc1ccc(-c2cnc3c(c2)CN(c2nn4c(=O)cc(C(F)F)nc4cc2C)CC3)cn1` [Compound 1-81, 2-(difluoromethyl)-8-methyl-7-(3-(6-methylpyridin-3-yl)-7,8-dihydro-1,6-naphthyridin-6(5H)-yl)-4H-pyrimido[1,2-b]pyridazin-4-one]: the Emax at 30 µM was determined as 103% and the EC50 amounted to 0.088 µM.

Take `Cc1ccccc1Nc1cnc2c(c1)CN(c1nn3c(=O)ccnc3cc1C)CC2` [Compound 2-75, 8-methyl-7-(3-(o-tolylamino)-7,8-dihydro-1,6-naphthyridin-6(5H)-yl)-4H-pyrimido[1,2-b]pyridazin-4-one]: the maximal response (Emax) at 30 µM stood at 93% and the 50% effective concentration (EC50) came to 0.017 µM.

In the case of `COCc1cc(=O)n2nc(N3CCc4ncc(-c5ccc(C)nc5)cc4C3)c(C)c(C)c2n1` [Compound 1-110, 2-(methoxymethyl)-8,9-dimethyl-7-(3-(6-methylpyridin-3-yl)-7,8-dihydro-1,6-naphthyridin-6(5H)-yl)-4H-pyrimido[1,2-b]pyridazin-4-one], the Emax at 30 µM turned out to be 95% and the EC50 was found to be 0.177 µM.

For the compound `COCc1cc(=O)n2nc(N3CCc4ncc(-c5cnccc5C)cc4C3)c(C)cc2n1` [Compound 1-359, 2-(methoxymethyl)-8-methyl-7-(3-(4-methylpyridin-3-yl)-7,8-dihydro-1,6-naphthyridin-6(5H)-yl)-4H-pyrimido[1,2-b] pyridazin-4-one], the maximal effect (Emax) at 30 µM is 82% and the concentration for a half-maximal effect (EC50) was 0.136 µM.

Turning to `Cc1cc2nccc(=O)n2nc1N1CCc2ncc(Nc3ccnc(F)c3)cc2C1` [Compound 2-123, 7-(3-((2-fluoropyridin-4-yl)amino)-7,8-dihydro-1,6-naphthyridin-6(5H)-yl)-8-methyl-4H-pyrimido[1,2-b]pyridazin-4-one], the maximum response (Emax) at 30 µM is 92% and the EC50 came out at 0.016 µM.

For the compound `COc1ccc(-c2cnc3c(c2)CN(c2nn4c(=O)cc(C)nc4cc2C)CC3)cc1F` [Compound 1-216, 7-(3-(3-fluoro-4-methoxyphenyl)-7,8-dihydro-1,6-naphthyridin-6(5H)-yl)-2,8-dimethyl-4H-pyrimido[1,2-b]pyridazin-4-one], the maximum response (Emax) at 30 µM was 79% and the EC50 is 0.38 µM.
